{
  "source": "patent US9446007B2",
  "about": "“Methods for maintaining or improving health, well-being and/or a physiological function in a subject” (DYNAMIS THERAPEUTICS, INC., priority 2012, dated 2016)",
  "key": {"blood glucose": {"system": "blood glucose", "assay": "Glucose tolerance test", "assay_type": "in vivo, KK.Cg-A^y/+/J yellow mice", "settings": "mutant yellow mice; 18 mM meglumine hydrochloride in water for 16 weeks; 15, 30, 60 and 120 min; vs water", "description": "Mutant KK.Cg-A^y/+/J “yellow mice” (which are prone to developing diabetes and obesity) and control KK.Cg-A^+/+/J “black mice” were fed with water or water supplemented with 18 mM meglumine hydrochloride for 16 weeks. As a comparison group, SV129 normoglycemic mice were fed with water. The animals were then fasted overnight and blood glucose measured (time 0 min). The animals were injected with glucose, and blood glucose levels measured after 15 min, 30 min, 60 min and 120 min. The results are illustrated in FIG. 8."}, "imidazolone [1]": {"system": "imidazolone", "assay": "Rat study: 3DG adduct (imidazolone) levels in skin, fluorescent immunohistochemistry", "assay_type": "in vivo, Sprague-Dawley rat", "settings": "50 mM, 32 weeks", "description": "Eighteen male Sprague-Dawley rat (ACE) weighing 150-175 g were divided into 3 groups (n=6) and fed a normal diet supplemented with 0 mM, 25 mM, or 75 mM meglumine in the drinking water for 32 weeks. The presence of imidazolone, a 3DG-derived adduct formed from the reaction of 3DG and arginine was measured by fluorescent immunohistochemistry, using a monoclonal antibody to imidazolone, AG-1 (T. Niwa). A piece of skin from each rat on water and 50 mM meglumine was fixed in formalin, and thin sections were treated with AG-1 antibody and then a fluorescent second antibody, and each slide was scanned using a fluorescence microscope. The total florescence due to imidazolone over each slide was measured."}, "isoprostane": {"system": "isoprostane", "assay": "Rat study: urinary isoprostane levels, competitive ELISA", "assay_type": "in vivo, Sprague-Dawley rat", "settings": "50 mM, 32 weeks", "description": "[…] Rat urine from 32 weeks was measured for the presence of isoprostane, a marker for oxidative stress using a competitive ELISA (Oxford Biochemicals, Oxford Mich.). All values were normalized to creatinine levels to control for differences in urine volume. Creatinine was measured using a kit from Oxford Biochemicals."}, "C57BL/6 male mice": {"system": "C57BL/6 male mice", "assay": "Mice study: longevity", "assay_type": "in vivo", "settings": "for average lifespan (±standard deviation): control 771±214.6", "description": "(§1) A group of sixteen C57BL/6 male mice at 12 weeks of age were distributed into 4 groups (n=4 each). Animals were fed a normal diet supplemented with 0 mM, 10 mM, 40 mM, or 75 mM meglumine in the drinking water. The approximate doses of meglumine were 537 mg/kg/day, 2,146 mg/kg/day, and 4,027 mg/kg/day for animals treated with, respectfully, 10 mM, 40 mM and 75 mM meglumine.\nAnimals were observed daily, and date of death was noted if applicable. Four animals were found dead in their cages, and twelve were euthanized after showing symptoms of distress (hunched posture, weight loss, decreased food intake).\nThe average lifespan (±standard deviation) for the mice treated with 0 mM, 10 mM, 40 mM and 75 mM meglumine was 771±214.6 days, 834±124 days, 927±80.3 days and 1,027±117.5 days. Animals treated with 10 mM, 40 mM and 75 mM lived, respectively, 8.2%, 20.2%, and 33.2% longer than the control animals."}, "[2]": {"system": "advanced glycation end products (AGE products)", "assay": "Rat study: advanced glycation end product in skin (fluorescence ratio)", "assay_type": "in vivo, Sprague-Dawley rat", "settings": "32 weeks; for Mean AGE/Total Protein in skin: water 0.594 ± 0.173; for decrease of AGE product in the skin vs untreated rats: not statistically significant", "description": "At the end of 32 weeks the ratio of advanced glycation end products (AGE products) to total protein was determined in the skin using the ratio of fluorescence measurements. A 3 cm^2 biopsy was taken from the shaved dorsal surface of the rats. The dermis was separated from the epidermis via immersion in water at 55° C. for 30 seconds, followed by gentle scraping of epidermis. The dermis was placed onto a wire screen cut to fit diagonally into fluorescence spectrometer. Fluorescence was recorded on PE 650-40 fluorescence spectrometer using front surface (“diagonal”) geometry. Fluorescence intensities were monitored at excitation/emission wavelengths of 270/300 nm, 270/330 nm, 270/360 nm, 270/400 nm, 325/400 nm, 270/450 nm and 370/450 nm. For direct comparison at the same excitation wavelength, ratios of I(270/330 nm) to I(270/450 nm) were recorded. These ratios were corrected for different instrumental responses at 330 and 450 nm."}, "SV129 mice": {"system": "SV129 mice", "assay": "Strength testing in mice (inverted metal grid)", "assay_type": "in vivo", "settings": "18 mM meglumine hydrochloride in drinking water, 6 weeks; n=15; control 6.3±3.4; p=0.0006", "excerpt": "The grip strength test is a widely-used non-invasive method designed to evaluate mouse limb strength that has been used to investigate the effects of neuromuscular disorders and compound under testing. It is based on the natural tendency of the mouse to grasp a bar or grid when it is suspended by the tail. During this test the mouse grips with both forelimbs (or hind-limbs) a single bar or a mesh. There are three kinds of grip strength tests used: Mesh Grip Test, Wire Grip Test, and Automatic Grip Strength (GS Meter). The Mesh Grip Test measures the ability of the mouse to remain clinging to an inverted or tilted surface such as a wire grid or a cage lid for a period of time, usually up to 1 minute; the Wire Grip Test measures the ability of the mouse to hang on a wire with its forepaws for a preset length of time or until grip fails, while in the Automatic Grip Strength the mouse grasps a horizontal metal bar or grid while is pulled by the tail. The bar or grid is attached to a force transducer that peak pull-force achieved on its digital display. A group of SV129 mice (n=15) and a group of mice treated with 18 mM meglumine hydrochloride in their drinking water (n=15) for 6 weeks were tested for the ability to hold on to an inverted metal grid. The length of time before falling off the grid was averaged, and the standard error was calculated."}, "3-Deoxyglucosone (3DG)": {"system": "3-Deoxyglucosone (3DG)", "assay": "Mice study: urine 3-deoxyglucosone (3DG) levels, GC-MS", "assay_type": "in vivo, C57BL/6 male mice", "settings": "10, 40 or 75 mM in drinking water; age 103 weeks; vs control animals", "description": "as §1\nUrine was collected from animals (n=3 for all groups, except n=4 for 75 mM meglumine) at the age of 103 weeks and 3DG levels were measured using GC-MS with an internal U-[^13C]-3DG standard (FIG. 2). Prior to analysis, urine samples were treated with 2,3-diaminonapthalene overnight to derivatize 3DG, and then extracted with ethyl acetate. Urinary creatinine levels were measured with a reagent kit from Oxford Biochemicals. The 3DG/creatinine ratio (±standard deviation) is illustrated in FIG. 2."}, "imidazolone [3]": {"system": "imidazolone", "assay": "Rat study: 3DG adduct (imidazolone) levels in kidney tubules and glomeruli", "assay_type": "in vivo, Sprague-Dawley rat", "settings": "50 mM, 32 weeks", "description": "Eighteen male Sprague-Dawley rat (ACE) weighing 150-175 g were divided into 3 groups (n=6) and fed a normal diet supplemented with 0 mM, 25 mM, or 75 mM meglumine in the drinking water for 32 weeks. The 3DG adduct imidazolone was measured in kidney tubules and glomeruli by fluorescent immunohistochemistry using a monoclonal antibody to imidazolone, AG-1 (T. Niwa). Kidneys from each rat on water or 50 mM meglumine were placed in formalin, and thin sections were prepared. Each slide was treated with AG-1 and then a fluorescent second antibody, and then scanned using a fluorescence microscope. The total florescence due to imidazolone over each structure measured."}, "3DG": {"system": "3DG", "assay": "Rat study: urinary 3DG levels, GC-MS", "assay_type": "in vivo, Sprague-Dawley rat", "settings": "50 mM, 32 weeks", "description": "The level of 3DG was measured in the urine of the rats at 32 weeks. 3DG levels were measured by GC-MS by reacting 0.1 ml of sample, to which 20 picomoles of [U-^13C] labeled 3DG had been added as an internal standard, with 1 ml of 1 mM 2,3-diaminonaphthalene (DAN) for 24 hours at room temperature. Following reaction with DAN, the sample was extracted with four volumes of ethyl acetate and then dried. The residue was dissolved in 50 μl of N-methyl-N-(trimethylsilyl)trifluoroacetamide and heated at 65° C. for 30 min. 2 μl was analyzed by GC-MS. Levels of 3DG were normalized to creatinine levels measured with reagents from Oxford Biochemicals."}},
  "data": [
    {"molecule": "CNC[C@H](O)[C@@H](O)[C@H](O)[C@H](O)CO", "note": "[meglumine, (2R,3R,4R,5S)-6-methylaminohexane-1,2,3,4,5-pentol]", "values": [
      {"measurement": "blood glucose levels after glucose injection", "setting": "blood glucose", "value": "decreased blood glucose levels"},
      {"measurement": "less imidazolone in skin than rats on water", "setting": "imidazolone [1]; not statistically significant", "value": 25, "unit": "%"},
      {"measurement": "Fluorescence (imidazolone) in skin", "setting": "imidazolone [1]; water 790567 ± 83833", "value": "593320 ± 87404"},
      {"measurement": "urinary isoprostane levels lower than in rats on water", "setting": "isoprostane; not statistically significant", "value": 22, "unit": "%"},
      {"measurement": "urinary Isoprostane", "setting": "isoprostane; water 2.65 ± 0.236", "value": "2.05 ± 0.283", "unit": "ng/mL"},
      {"measurement": "lived longer than the control animals", "setting": "C57BL/6 male mice; 10 mM in drinking water", "value": 8.2, "unit": "%"},
      {"measurement": "average lifespan (±standard deviation)", "setting": "C57BL/6 male mice; 10 mM in drinking water (537 mg/kg/day)", "value": "834 ± 124", "unit": "days"},
      {"measurement": "lived longer than the control animals", "setting": "C57BL/6 male mice; 40 mM in drinking water", "value": 20.2, "unit": "%"},
      {"measurement": "average lifespan (±standard deviation)", "setting": "C57BL/6 male mice; 40 mM in drinking water (2,146 mg/kg/day)", "value": "927 ± 80.3", "unit": "days"},
      {"measurement": "lived longer than the control animals", "setting": "C57BL/6 male mice; 75 mM in drinking water", "value": 33.2, "unit": "%"},
      {"measurement": "average lifespan (±standard deviation)", "setting": "C57BL/6 male mice; 75 mM in drinking water (4,027 mg/kg/day)", "value": "1,027±117.5 days"},
      {"measurement": "Mean AGE/Total Protein in skin", "setting": "[2]; 25 mM in drinking water", "value": "0.486 ± 0.187"},
      {"measurement": "decrease of AGE product in the skin vs untreated rats", "setting": "[2]; 25 mM", "value": 10, "unit": "%"},
      {"measurement": "Mean AGE/Total Protein in skin", "setting": "[2]; 50 mM in drinking water", "value": "0.235 ± 0.067"},
      {"measurement": "decrease of AGE product in the skin vs untreated rats", "setting": "[2]; 50 mM", "value": 60, "unit": "%"},
      {"measurement": "length of time that the animals could hold on to the grid", "setting": "SV129 mice", "value": "17.8 ± 0.6", "unit": "s"},
      {"measurement": "urine 3DG/creatinine ratio", "setting": "3-Deoxyglucosone (3DG)", "value": "less than the control animals"},
      {"measurement": "less imidazolone in glomeruli than rats on water", "setting": "imidazolone [3]; not statistically significant", "value": 24, "unit": "%"},
      {"measurement": "less imidazolone in tubules than rats on water", "setting": "imidazolone [3]; not statistically significant", "value": 13, "unit": "%"},
      {"measurement": "Fluorescence in Tubules (imidazolone)", "setting": "imidazolone [3]; water 47,081,228 ± 6,407,142", "value": "40,158,431 ± 3,644,819"},
      {"measurement": "Fluorescence in Glomeruli (imidazolone)", "setting": "imidazolone [3]; water 85,039,251 ± 13,401,970", "value": "64,376,501 ± 7,548,981"},
      {"measurement": "urinary 3DG levels lower than in rats on water", "setting": "3DG", "value": 33, "unit": "%"},
      {"measurement": "urinary 3DG", "setting": "3DG; water 0.0891 ± 0.007", "value": "0.0598 ± 0.004", "unit": "µM"}
    ]}
  ]
}
